Reference: the Bradley open melting point set (2014)

Row | melting point [°C] | SMILES
1 | 103 | CC(COc1ccccc1)NC(C)C(O)c1ccc(O)cc1 (configuration not stated) [Isolait]
2 | 93 | CC(C(=O)O)c1cccc(C(=O)c2ccccc2)c1 (configuration not stated) [Ketoprofen]
3 | 235 | NC(=O)C[C@H](N)C(=O)O [L-Asparagine]
4 | 230 | N[C@@H](CC(=O)O)C(=O)O [L-Aspartic Acid]
5 | 214 | NC(=O)NCCC[C@H](N)C(=O)O [L-Citrulline]
6 | 224 | N[C@@H](CCC(=O)O)C(=O)O [L-Glutamic Acid]
7 | 102 | CC1=CC(=O)c2ccccc2C1=O [Menadione]
8 | 135 | CCC1(c2ccccc2)NC(=O)N(C)C1=O (configuration not stated) [Mephenytoin]
9 | 127 | COC(=O)c1ccc(O)cc1 [Methyl 4-hydroxybenzoate]
10 | 249 | COC(=O)[C@H](Cc1ccccc1)NC(=O)[C@@H](N)CC(=O)O [Methyl L-alpha-aspartyl-L-phenylalaninate]
11 | 134 | COC(=O)[C@@H](N)Cc1ccc(O)cc1 [Methyl L-tyrosinate]
12 | -12 | COC(=O)c1ccccc1 [Methyl benzoate]
13 | 156 | CCOC(=O)Nc1ccc2c(c1)N(C(=O)CCN1CCOCC1)c1ccccc1S2 [Moricizine]
14 | 173 | O=C(NNc1ccccc1)NNc1ccccc1 [N'',N'''-Diphenylcarbonohydrazide]
15 | 136 | O=CNC(c1ccccc1)c1ccccc1 [N-(Diphenylmethyl)formamide]
16 | 81 | CCOC(=O)N1C(=O)c2ccccc2C1=O [N-(ethoxycarbonyl)phthalimide]

Row | melting point [°C] | SMILES
17 | 77 | O=C(O)[C@@H]1CCCN1C(=O)OCc1ccccc1 [N-Cbz-L-proline]
18 | 115 | CC(=O)Nc1ccccc1 [N-Phenylacetamide]
19 | 47 | O=CNc1ccccc1 [N-Phenylformamide]
20 | 150 | CC(=O)N/C=C/c1ccccc1[N+](=O)[O-] [N-[(E)-2-(2-nitrophenyl)ethenyl]acetamide]
21 | 197 | CC(=O)N[C@@H](CCC(=O)O)C(=O)O [N-acetyl-l-glutamic acid]
22 | 153 | CC(=O)N[C@@H](Cc1ccc(O)cc1)C(=O)O [N-acetyl-l-tyrosine]
23 | -55 | CNCc1ccccc1 [N-benzylmethylamine]
24 | 85 | C[C@@H](NC(=O)OCc1ccccc1)C(=O)O [N-benzyloxycarbonyl-D-alanine]
25 | 86 | O=C(N[C@H](Cc1ccccc1)C(=O)O)OCc1ccccc1 [N-benzyloxycarbonyl-D-phenylalanine]
26 | 77 | O=C(O)[C@H]1CCCN1C(=O)OCc1ccccc1 [N-benzyloxycarbonyl-D-proline]
27 | 118 | O=C(N[C@H](CO)C(=O)O)OCc1ccccc1 [N-benzyloxycarbonyl-D-serine]
28 | 59 | CC(C)[C@@H](NC(=O)OCc1ccccc1)C(=O)O [N-benzyloxycarbonyl-D-valine]
29 | 85 | C[C@H](NC(=O)OCc1ccccc1)C(=O)O [N-benzyloxycarbonyl-l-alanine]
30 | 57 | CCCC[C@H](NC(=O)OCc1ccccc1)C(=O)O [N-benzyloxycarbonyl-l-norleucine]
31 | 98 | C[C@@H](O)[C@H](NC(=O)OCc1ccccc1)C(=O)O [N-benzyloxycarbonyl-l-threonine]

The next lines start with the compound.

Row | SMILES | melting point [°C]
32 | NS(=O)(=O)c1cc2c(cc1Cl)NCNS2(=O)=O [Hydrochlorothiazide] | 274
33 | CCOC(=O)Cc1c(C)n(C(=O)c2ccc(Cl)cc2)c2ccc(OC)cc12 [Indomethacin ethyl ester] | 96
34 | II [Iodine] | 114
35 | CN=C=O [Isocyanatomethane] | -80
36 | CN=C=S [Isothiocyanatomethane] | 35
37 | C[N+](C)(C)C[C@H](O)CC(=O)[O-] [L-Carnitine] | 196
38 | O=C[C@@H](O)[C@H](O)[C@@H](O)[C@@H](O)CO [L-Glucose] | 150
39 | O=C(O)[C@@H]1CCCN1 [L-Proline] | 228
40 | N[C@@H](CO)C(=O)O [L-Serine] | 222
41 | C[C@@H](O)[C@H](N)C(=O)O [L-Threonine] | 256
42 | C(O)[C@H](O)[C@@H](O)[C@@H](O)CO [L-arabitol] | 101
43 | CC(C)[C@@H]1CC[C@@H](C)C[C@H]1O [L-menthol] | 44
44 | CSCC[C@H](N)CO [L-methioninol] | 32
45 | CC(=O)CCC(=O)O [Laevulinic Acid] | 33
46 | CCCCCCCCCCCC(N)=O [Lauramide] | 99
47 | CCCCCCCCCCCC(=O)O [Lauric acid] | 45
48 | N#Cc1ccc(C(c2ccc(C#N)cc2)n2cncn2)cc1 [Letrozole] | 184
49 | C=CCN1CC[C@]23CCCC[C@H]2[C@H]1Cc1ccc(O)cc13 [Levallorphan] | 181
50 | ClC1C(Cl)C(Cl)C(Cl)C(Cl)C1Cl (configuration not stated) [Lindane] | 114
51 | CC(Oc1c(Cl)cccc1Cl)C1=NCCN1 (configuration not stated) [Lofexidine] | 127
52 | O=C1Nc2ccc(Cl)cc2C(c2ccccc2Cl)=NC1O (configuration not stated) [Lorazepam] | 166
53 | CC[C@H](C)C(=O)O[C@H]1C[C@@H](C)C=C2C=C[C@H](C)[C@H](CC[C@@H]3C[C@@H](O)CC(=O)O3)[C@H]21 [Lovastatin] | 175
54 | Cc1cccc(O)c1 [M-Cresol] | 11.8
55 | CCc1c(C)[nH]c2ccc(N(C)C)cc12 [Medmain] | 100

Row | SMILES | melting point [°C]
56 | CCOC(=O)C1(c2ccccc2)CCN(C)CC1 [Meperidine] | 188
57 | CN(C)C(=N)NC(=N)N [Metformin] | 224
58 | CO [Methanol] | -98
59 | Cc1ccccc1-n1c(C)nc2ccccc2c1=O [Methaqualone] | 113
60 | CCC1(CC)C(=O)NC(=O)N(C)C1=O [Metharbital] | 150
61 | COC(F)(F)C(Cl)Cl [Methoxyflurane] | -35
62 | COC(=O)c1ccccc1N [Methyl 2-aminobenzoate] | 24
63 | C=CC(=O)OC [Methyl acrylate] | -75
64 | CCC1(c2ccccc2)C(=O)NC(=O)N(C)C1=O (configuration not stated) [Methylphenobarbital] | 176
65 | COc1ccc(NC(=O)N(C)C)cc1Cl [Metoxuron] | 127
66 | NC(=O)CS(=O)C(c1ccccc1)c1ccccc1 (configuration not stated) [Modafinil] | 165
67 | CCCCCCCCCCCCCC(=O)O [Myristic acid] | 55.1
68 | NCCNCCNCCN [N,N'-Bis(2-aminoethyl)ethane-1,2-diamine] | 12
69 | CC(=O)Nc1ccc(/C=C/c2ccc(NC(C)=O)cc2)cc1 [N,N'-[(E)-ethene-1,2-diyldibenzene-4,1-diyl]diacetamide] | 219
70 | CCCCNC(=S)NCCCC [N,N'-di-n-butylthiourea] | 66
71 | C(=NC1CCCCC1)=NC1CCCCC1 [N,N'-dicyclohexylcarbodiimide] | 35
72 | CCNC(=O)C(=O)NCC [N,N'-diethyloxamide] | 180
73 | CNC(=O)NC [N,N'-dimethylurea] | 102
74 | CCCCN(CCCC)CCCC [N,N-Dibutylbutan-1-amine] | -70
75 | CN(C)c1ccc(N=O)cc1 [N,N-Dimethyl-4-nitrosoaniline] | 86
76 | CCCN(CCC)CCC [N,N-Dipropylpropan-1-amine] | -93.5
77 | CCCCN(CCCC)CCCN [N,N-di-n-butyl-1,3-propylenediamine] | -70
78 | c1ccc(CN(Cc2ccccc2)c2ccccc2)cc1 [N,N-dibenzylaniline] | 70
79 | CCN(O)CC [N,N-diethylhydroxylamine] | -25

Row | SMILES | melting point [°C]
80 | CN(C)c1ccc(N=O)cc1 [N,N-dimethyl-4-nitrosoaniline] | 86
81 | CN(C)c1ccc(N)cc1 [N,N-dimethyl-p-phenylenediamine] | 36
82 | CN(C)c1ccccc1 [N,N-dimethylaniline] | 2
83 | CN(C)S(C)(=O)=O [N,N-dimethylmethanesulfonamide] | 48
84 | CC(=O)Nc1nc(O)c2ncn(COCCOC(C)=O)c2n1 [N,O-Diacetylacyclovir] | 204
85 | NCCNCCN [N-(2-Aminoethyl)ethane-1,2-diamine] | -35
86 | CC(=O)Nc1ccc2c(c1)NC(=O)C2 [N-(2-oxo-2,3-dihydro-1H-indol-6-yl)acetamide] | 335
87 | Cc1ccc(N2C(=O)C=CC2=O)cc1Cl [N-(3-chloro-4-methylphenyl)maleimide] | 146
88 | CC(=O)Nc1ccc(O)cc1 [N-(4-Hydroxyphenyl)acetamide] | 170
89 | O=C1c2ccccc2C(=O)N1CCCCBr [N-(4-bromobutyl)phthalimide] | 79
90 | CC(=O)Nc1cccc2c(N)cccc12 [N-(5-aminonaphthalen-1-yl)acetamide] | 166
91 | Cc1ccc(cc1NC(=O)/C=CC(=O)O)Cl [N-(5-chloro-2-methylphenyl)maleamic acid] | 120
92 | NCCNc1ccc([N+](=O)[O-])cn1 [N-(5-nitro-2-pyridyl)-1,2-ethanediamine] | 127
93 | O=C1c2ccccc2C(=O)N1CCCCCCBr [N-(6-bromohexyl)phthalimide] | 57
94 | O=C1c2ccccc2C(=O)N1CBr [N-(bromomethyl)phthalimide] | 147
95 | CCCCc1ccccc1 [N-Butylbenzene] | -87.9
96 | CCCCNCCCC [N-Butylbutan-1-amine] | -60
97 | NC(=O)N[C@@H]1O[C@H](CO)[C@@H](O)[C@H](O)[C@H]1O [N-Carbamoyl-beta-D-glucopyranosylamine] | 207
98 | C1CCC(NC2CCCCC2)CC1 [N-Cyclohexylcyclohexanamine] | -1
99 | ON=C1/CCCCC1 [N-Hydroxycyclohexanimine] | 90
100 | O=[N+]([O-])c1cccc2c(/C=N/c3ccccc3)cccc12 [N-[(1E)-(5-nitronaphthalen-1-yl)methylidene]aniline] | 84
101 | N=C(N)NC(N)=S [N-amidinothiourea] | 164
102 | C(=N\c1ccccc1)/c1ccccc1 [N-benzylideneaniline] | 53
